The test system of one data set is Phytophthora infestans. The data set is described as follows: whole plant or invertebrate. Type of data set: in vivo. As to conditions: in Solanum lycopersicum, foliar, read-out: disease control.
The next data set relates to Plasmopara viticola. The data set is described as follows: whole plant or invertebrate. Type of data set: in vivo. As to conditions: foliar, read-out: disease control.
The next data set has as its system Pythium ultimum. The data set is described as follows: Pythium ultimum / liquid culture (seedling damping off). Type of data set: cell-based. As to conditions: Globisporangium ultimum; 200 ppm; potato dextrose broth, 24° C., 2-3 days after application; read-out: disease control (inhibition of growth determined photometrically).
Data set [1] relates to Monographella nivalis (Microdochium nivale). Briefly: Monographella nivalis (Microdochium nivale) / liquid culture (foot rot cereals). Type of data set: cell-based. As to conditions: PDB potato dextrose broth, 24° C., 4-5 days after application, read-out: disease control (inhibition of growth determined photometrically).
The subject of data set [2] is Botryotinia fuckeliana (Botrytis cinerea). The data set is described as follows: Botryotinia fuckeliana (Botrytis cinerea) / liquid culture (gray mould). Type of data set: cell-based. As to conditions: Vogels broth, 24° C., 3-4 days after application, read-out: disease control (inhibition of growth determined photometrically). Here is the method: 10. Botryotinia fuckeliana (Botrytis cinerea)/Liquid Culture (Gray Mould): Conidia of the fungus from cryogenic storage were directly mixed into nutrient broth (Vogels broth). After placing a DMSO solution of test compound into a 96-well microtiter plate at an application rate of 200 ppm, the nutrient broth containing the fungal spores was added. The test plates were incubated at 24° C. and the inhibition of growth was determined photometrically 3-4 days after application.

Data set [3] deals with Glomerella lagenarium (Colletotrichum lagenarium). Briefly: Glomerella lagenarium (Colletotrichum lagenarium) / liquid culture (anthracnose). Type of data set: cell-based. Conditions: Colletotrichum orbiculare, PDB potato dextrose broth, 24° C., 3-4 days after application, read-out: disease control (inhibition of growth measured photometrically). The essentials: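 Conidia of G. lagenarium from cryogenic storage were suspended in potato dextrose broth and added to test compound in DMSO at 200 ppm. Plates were incubated at 24° C, and growth inhibition was read photometrically 3-4 days after application.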

For data set [4], the system named is Mycosphaerella graminicola (Septoria tritici). The data set is described as follows: Mycosphaerella graminicola (Septoria tritici) / liquid culture (Septoria blotch). Type of data set: cell-based. Conditions: Zymoseptoria tritici, PDB potato dextrose broth, 24° C., 4-5 days after application, read-out: disease control (inhibition of growth determined photometrically). The gist of the method:
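Conidia from cryostorage were suspended in potato dextrose broth and added to test compound in DMSO at 200 ppm in microtiter wells. Plates were incubated at 24° C and growth inhibition measured photometrically 4-5 days after application.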

For a further data set, the system named is Gaeumannomyces graminis. The data set is described as follows: Gaeumannomyces graminis / liquid culture (take-all of cereals). Type of data set: cell-based. Conditions: PDB potato dextrose broth, 24° C., 4-5 days after application, read-out: disease control (inhibition of growth determined photometrically). The gist of the method: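 Cryo-stored mycelial fragments in potato dextrose broth exposed to compound in DMSO at 200 ppm. Incubated at 24 °C; growth inhibition read photometrically 4–5 days after application.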

The test system of data set [5] is Puccinia recondita f. sp. tritici. Briefly: Puccinia recondita f. sp. tritici / wheat / leaf disc preventative (brown rust). Type of data set: in vivo. As to conditions: foliar, wheat leaf segments cv Kanzler, inoculated 1 day after application, assessed 7-9 days after application, read-out: disease control. An excerpt:
3. Puccinia recondita f. sp. tritici/Wheat/Leaf Disc Preventative (Brown Rust): Wheat leaf segments cultivated variety (cv) Kanzler were placed on agar in 24-well plates and sprayed with formulated test compound diluted in water at an application rate of 200 ppm. The leaf disks were inoculated with a spore suspension of the fungus 1 day after application.

For data set [6], the system named is Mycosphaerella arachidis (Cercospora arachidicola). The data set is described as follows: Mycosphaerella arachidis (Cercospora arachidicola) / liquid culture (early leaf spot). Type of data set: cell-based. As to conditions: PDB potato dextrose broth, 24° C., 4-5 days after application, read-out: disease control (inhibition of growth determined photometrically). The gist of the method: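 Conidia from cryogenic storage mixed into potato dextrose broth and added to compound at 200 ppm in DMSO. Incubation at 24° C.; growth inhibition read photometrically 4-5 days after application.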

In data set [7] the test system is Thanatephorus cucumeris (Rhizoctonia solani). The data set is described as follows: Thanatephorus cucumeris (Rhizoctonia solani) / liquid culture (foot rot, damping-off). Type of data set: cell-based. Conditions: PDB potato dextrose broth, 24° C., 3-4 days after application, read-out: disease control (inhibition of growth determined photometrically). The essentials:
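Mycelial fragments from fresh liquid culture were suspended in potato dextrose broth and added to compound in DMSO at 200 ppm. After 3-4 days at 24 °C, growth inhibition was measured photometrically.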

In a further data set the test system is Fusarium culmorum. The data set is described as follows: microbe, parasite or virus in culture. Type of data set: cell-based. Conditions: read-out: disease control (inhibition of growth determined visually).

The structures appear in SMILES notation.

One may read the inhibition as the percentage by which the read-out fell short of the control. The melting point is the temperature, or range, at which the solid turns liquid. On to `COC(=O)c1sccc1NC(=O)c1cc2c(cc1F)COB2O` [Compound 186], for which the melting point was in the range of 302 to 304 °C. The pest or weed control at 200 ppm in the data set with Phytophthora infestans is at least 80%. Further, the pest or weed control at 200 ppm in the data set on Plasmopara viticola was at least 80%. Moreover, the inhibition at 200 ppm in the data set with Pythium ultimum is at least 80%. Also, the inhibition at 200 ppm in [1] is at least 80%.
`C#CC(CC)OC(=O)c1cc2c(cc1Cl)COB2O` (stereo not shown) [Compound 201]: in the data set on Plasmopara viticola, the pest or weed control at 200 ppm was at least 80%. The inhibition at 200 ppm (in the data set with Pythium ultimum; in [2]; in [3]; in data set [4]; in the data set on Gaeumannomyces graminis; in [1]) was at least 80% in each case.
In the case of `O=C(OCC1CCSCC1)c1cc2c(cc1F)COB2O` [Compound 380], the pest or weed control at 200 ppm (in the data set with Plasmopara viticola; in data set [5]) was at least 80% in each case. Further, the inhibition at 200 ppm (with Pythium ultimum; in [3]; in data set [6]; in data set [1]; in data set [7]) was at least 80% each time.
With `COC(=O)C(OC(=O)c1ccc2c(c1)B(O)OC2)c1ccccc1` (stereo not shown) [Compound 349], the pest or weed control at 200 ppm (in the data set with Plasmopara viticola; in [5]) was at least 80% throughout. The inhibition at 200 ppm (in the data set on Pythium ultimum; in [3]; in the data set with Gaeumannomyces graminis; in [1]) was at least 80% in each case.
As to `O=C(NCc1ccccc1F)c1cc2c(cc1F)COB2O` [Compound 107], the melting point fell in the range of 175 to 177 °C. The pest or weed control at 200 ppm in the data set on Phytophthora infestans is at least 80%. Moreover, in the data set with Plasmopara viticola, the pest or weed control at 200 ppm was at least 80%. The inhibition at 200 ppm with Pythium ultimum is at least 80%. In addition, the inhibition at 200 ppm in data set [3] is at least 80%.
With `C[Si](C)(C)/C=C/COC(=O)c1cc2c(cc1Cl)COB2O` [Compound 216], the inhibition at 200 ppm (in [2]; in [6]; in [4]; in the data set on Gaeumannomyces graminis; in data set [1]) was at least 80% each time.
For `O=C(NCc1cccc(Cl)c1)c1cc2c(cc1Cl)COB2O` [Compound 85], the melting point fell in the range of 263 to 265 °C. In addition, in the data set with Phytophthora infestans, the pest or weed control at 200 ppm is at least 80%. For the same compound, the pest or weed control at 200 ppm with Plasmopara viticola is at least 80%. Further, in the data set on Pythium ultimum, the inhibition at 200 ppm is at least 80%. In addition, the inhibition at 200 ppm in the data set with Gaeumannomyces graminis was at least 80%.
In the case of `O=C(OCc1ccsc1)c1ccc2c(c1)B(O)OC2` [Compound 50], the melting point was in the range of 130 to 132 °C. The pest or weed control at 200 ppm with Plasmopara viticola is at least 80%. For the same compound, the pest or weed control at 200 ppm in [5] was at least 80%. Besides, the inhibition at 200 ppm in the data set on Pythium ultimum is at least 80%. In addition, the inhibition at 200 ppm in [3] is at least 80%. The inhibition at 200 ppm in data set [6] is at least 80%. The inhibition at 200 ppm in data set [4] was at least 80%. For the same compound, the inhibition at 200 ppm with Gaeumannomyces graminis was at least 80%. The inhibition at 200 ppm in [1] was at least 80%. Also, the inhibition at 200 ppm in the data set on Fusarium culmorum was at least 80%. The inhibition at 200 ppm in data set [7] was at least 80%.
The compound `Cc1cccc(Cl)c1NC(=O)c1cc2c(cc1F)COB2O` [Compound 150] yielded a melting point of 212 to 214 °C. The pest or weed control at 200 ppm in the data set on Phytophthora infestans is at least 80%. Also, in the data set on Pythium ultimum, the inhibition at 200 ppm is at least 80%. In addition, the inhibition at 200 ppm in data set [3] was at least 80%. In data set [1], the inhibition at 200 ppm is at least 80%. In addition, the inhibition at 200 ppm with Fusarium culmorum was at least 80%.
Compound `COC(=O)c1sccc1NC(=O)c1cc2c(cc1Cl)COB2O` [Compound 169] showed a melting point of 267 to 269 °C. The pest or weed control at 200 ppm in the data set with Plasmopara viticola is at least 80%. Further, in [5], the pest or weed control at 200 ppm is at least 80%. Further, the inhibition at 200 ppm in [3] was at least 80%. In addition, in data set [4], the inhibition at 200 ppm is at least 80%. For the same compound, the inhibition at 200 ppm in [1] is at least 80%.
In the case of `Cc1cccc(Cl)c1NC(=O)c1cc2c(cc1Cl)COB2O` [Compound 114], the pest or weed control at 200 ppm with Phytophthora infestans and in the data set on Plasmopara viticola was at least 80% throughout. Moreover, the inhibition at 200 ppm (in [3]; in data set [4]; in data set [1]; in the data set with Fusarium culmorum) was at least 80% in each case.
`C[Si](C)(C)CCCOC(=O)c1cc2c(cc1Cl)COB2O` [Compound 194]: the inhibition at 200 ppm (in [2]; in data set [3]; in data set [6]; in data set [4]; in the data set on Gaeumannomyces graminis; in [1]) was at least 80% in each case.
On to `O=C(OCCc1ccc(Cl)cc1Cl)c1ccc2c(c1)B(O)OC2` [Compound 312], for which, in [5], the pest or weed control at 200 ppm was at least 80%. Moreover, the inhibition at 200 ppm (with Gaeumannomyces graminis; in data set [1]) was at least 80% throughout.
`C#CC(OC(=O)c1cc2c(cc1Cl)COB2O)c1ccccc1` (stereo not shown) [Compound 211]: the pest or weed control at 200 ppm in the data set on Phytophthora infestans and in the data set with Plasmopara viticola was at least 80% throughout. Also, the inhibition at 200 ppm (in the data set on Pythium ultimum; in [3]; in data set [4]; in data set [1]; in data set [7]) was at least 80% each time.
For the compound `O=C(OCCc1ccc(Cl)cc1Cl)c1cc2c(cc1F)COB2O` [Compound 370], in data set [5], the pest or weed control at 200 ppm is at least 80%. Further, the inhibition at 200 ppm (in the data set with Pythium ultimum; in data set [4]; in the data set on Gaeumannomyces graminis; in [1]; in [7]) was at least 80% each time.
As for `O=C(OCc1cccc2ccccc12)c1cc2c(cc1Cl)COB2O` [Compound 207], the pest or weed control at 200 ppm (with Phytophthora infestans; in data set [5]) was at least 80% throughout. The inhibition at 200 ppm (in the data set with Pythium ultimum; with Gaeumannomyces graminis; in [1]) was at least 80% in each case.
Turning to `CCCCCCCCCCOC(=O)c1ccc2c(c1)B(O)OC2` [Compound 331], in data set [5], the pest or weed control at 200 ppm was at least 80%. For the same compound, the inhibition at 200 ppm (with Pythium ultimum; in [6]; in data set [4]; in data set [7]) was at least 80% in each case.
As to `C[Si](C)(C)COC(=O)c1ccc2c(c1)B(O)OC2` [Compound 367], the pest or weed control at 200 ppm (in the data set on Plasmopara viticola; in data set [5]) was at least 80% each time. Further, the inhibition at 200 ppm (with Pythium ultimum; in data set [3]; in data set [4]; with Gaeumannomyces graminis; in data set [1]; in data set [7]) was at least 80% each time.
For `O=C(OCc1ccsc1)c1cc2c(cc1F)COB2O` [Compound 441], the melting point fell in the range of 128 to 130 °C. Also, the pest or weed control at 200 ppm with Plasmopara viticola was at least 80%. Also, the pest or weed control at 200 ppm in data set [5] is at least 80%. Moreover, in the data set with Pythium ultimum, the inhibition at 200 ppm is at least 80%. In [3], the inhibition at 200 ppm is at least 80%. Further, in data set [6], the inhibition at 200 ppm was at least 80%. In addition, the inhibition at 200 ppm in [4] is at least 80%. The inhibition at 200 ppm in data set [1] was at least 80%. In addition, the inhibition at 200 ppm in the data set on Fusarium culmorum is at least 80%. Besides, the inhibition at 200 ppm in [7] is at least 80%.
On to `CCCCCCCCCCOC(=O)c1cc2c(cc1F)COB2O` [Compound 391], for which, in data set [5], the pest or weed control at 200 ppm is at least 80%. In addition, the inhibition at 200 ppm (in the data set on Pythium ultimum; in data set [6]; in the data set with Gaeumannomyces graminis; in data set [7]) was at least 80% in each case.
Take `Cc1ccc(-c2csc(NC(=O)c3cc4c(cc3F)COB4O)n2)cc1` [Compound 188]: the pest or weed control at 200 ppm (in the data set on Plasmopara viticola; in [5]) was at least 80% each time. In addition, in data set [1], the inhibition at 200 ppm was at least 80%.
